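1) Cells in 96-well plates. 2) Compound, 48 h, 5 concentrations. 3) Linear interpolation between surrounding doses. 4) Unreached endpoint = highest concentration. Abbreviation: GI50, concentration required for 50% inhibition of growth.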 Active and inactive are the calls of the source. Rule as the data show it: active = GI50 up to about 1.1 µM and inactive = higher.
Tests used:
Experiment in all cases: growth of human tumour cells (NCI), 48 h
MDA-MB-435 = system: MDA-MB-435
HCC 2998 = system: HCC 2998
CAKI-1 = system: CAKI-1
786-0 = system: 786-0
IGROV-1 = system: IGROV-1
MDA-N = system: MDA-N
ACHN = system: ACHN
SNB-19 = system: SNB-19
DU-145 = system: DU-145
OVCAR-8 = system: OVCAR-8
KM12 = system: KM12
CCRF-CEM = system: CCRF-CEM
SR = system: SR
UACC-62 = system: UACC-62
NCI-H23 = system: NCI-H23
PC-3 = system: PC-3
RXF 393 = system: RXF 393
SF-539 = system: SF-539
A498 = system: A498
SN12C = system: SN12C

Measured: GI50

O=C1Nc2ccccc2C1=Nc1ccc(S(=O)(=O)Nc2nccs2)cc1
inactive: MDA-MB-435 92.5 µM | HCC 2998 > 100 µM | CAKI-1 > 100 µM | 786-0 > 100 µM | IGROV-1 > 100 µM | MDA-N > 100 µM | ACHN > 100 µM | SNB-19 > 100 µM | DU-145 > 100 µM | OVCAR-8 > 100 µM | KM12 > 100 µM | CCRF-CEM > 100 µM | SR 51.8 µM | UACC-62 > 100 µM | NCI-H23 > 100 µM | PC-3 > 100 µM | RXF 393 > 100 µM | SF-539 48.3 µM | A498 > 100 µM | SN12C > 100 µM

O=[N+]([O-])c1ccc(N/N=C/CC(O)(C(F)(F)F)C(F)(F)F)c([N+](=O)[O-])c1
inactive: MDA-MB-435 4.13 µM | HCC 2998 5.32 µM | CAKI-1 3.15 µM | 786-0 5.04 µM | IGROV-1 4.47 µM | MDA-N 5.25 µM | ACHN 3.52 µM | SNB-19 5.04 µM | DU-145 3.1 µM | OVCAR-8 4.23 µM | KM12 4.82 µM | CCRF-CEM 3.99 µM | SR 5.06 µM | UACC-62 4.06 µM | NCI-H23 2.77 µM | PC-3 3.24 µM | RXF 393 5.35 µM | SF-539 2.3 µM | A498 3.78 µM | SN12C 3.41 µM

Oc1ccc(/C=C/c2cc(O)cc3c2C(c2cc(O)cc(O)c2)C(c2ccc(O)c(O)c2)O3)cc1 (stereo not given)
inactive: MDA-MB-435 32.6 µM | HCC 2998 25.4 µM | CAKI-1 31.7 µM | 786-0 41.8 µM | IGROV-1 31.4 µM | MDA-N 18.2 µM | ACHN 15 µM | SNB-19 18.6 µM | DU-145 35.1 µM | OVCAR-8 21.6 µM | KM12 25.6 µM | CCRF-CEM 8.34 µM | SR 17.6 µM | UACC-62 18.2 µM | NCI-H23 18.8 µM | PC-3 31.3 µM | RXF 393 41.3 µM | SF-539 34.4 µM | A498 33.5 µM | SN12C 17.6 µM

Reference: ChEMBL document CHEMBL1201862, “PubChem BioAssay data set” (2004)
